Literature values as cited in PMC6379498, “Radiosynthesis and in vivo evaluation of ^11C-labeled BMS-193885 and its desmethyl analog as PET tracers for neuropeptide Y1 receptors” (EJNMMI Radiopharmacy and Chemistry, 2019).
Like-named read-outs stand apart in the source and are kept apart here.

How the values were obtained:
[1] = design: method as in Antal-Zimanyi et al. [2008]; conditions: ref Antal-Zimanyi et al. [2008]; cited from earlier work
[2] = design: method as in Antal-Zimanyi et al. [2008]; conditions: rats, ref Antal-Zimanyi et al. [2008]; cited from earlier work
[3] = biological target: NPY Y1-R; design: method as in Poindexter et al. [2002]; conditions: ref Poindexter et al. [2002]; cited from earlier work
[4] = design: method as in Antal-Zimanyi et al. [2008]; conditions: dogs, ref Antal-Zimanyi et al. [2008]; cited from earlier work
[5] = system: animal models of obesity; design: method as in Antal-Zimanyi et al. [2008]; conditions: acute and chronic administration, ref Antal-Zimanyi et al. [2008]; cited from earlier work
[6] = design: method as in Poindexter et al. [2002]; conditions: in vitro, unlabeled 1, ref Poindexter et al. [2002]; cited from earlier work

Compound: COC(=O)C1=C(C)NC(C)=C(C(=O)OC)C1c1cccc(NC(=O)NCCCN2CCC(c3cccc(OC)c3)CC2)c1 [Compound 1]
- Brain penetration [1]: good
- Oral bioavailability [1]: lacks oral bioavailability
- Systemic bioavailability [1]: good
- Adverse cardiovascular effects [2]: no serious adverse cardiovascular effects
- Ki [3]: 3.3 nM
- Adverse cardiovascular effects [4]: no serious adverse cardiovascular effects
- Body weight [5]: reduced
- Food intake [5]: reduced
- Stability in rat liver microsomes [6]: good stability

Compound: COC(=O)C1=C(C)NC(C)=C(C(=O)OC)C1c1cccc(NC(=O)NCCCN2CCC(c3cccc(O)c3)CC2)c1 [Compound 2, Dimethyl 4-(3-(3-(3-(4-(3-hydroxyphenyl)piperidin-1-yl)propyl)ureido)phenyl)-2,6-dimethyl-1,4-dihydropyridine-3,5-dicarboxylate]
- Ki [3]: 2.7 nM
